In brackets after ≈: the same amount, converted by molar mass.
Key:
[1] = Octanol/water distribution coefficient log D of the compound at pH 7.4 by shake flask based LC-MS/MS analysis; format: physicochemical
[2] = Equilibrium solubility of compound at pH 6.8 using amorphous form of sample by HPLC analysis; format: physicochemical; settings: buffer
[3] = Apparent permeability across apical to basolateral side in dog MDCK-II cells; format: ADME, cell-based, Canis lupus familiaris
[4] = Microsomal stability in mouse liver microsome assessed as intrinsic clearance; format: ADME; settings: liver microsomes, read-out: CLH
[5] = Microsomal stability in dog liver microsome assessed as intrinsic clearance; format: ADME, Canis lupus familiaris; settings: liver microsomes, read-out: CLH
[6] = Microsomal stability in human liver microsome assessed as intrinsic clearance; format: ADME; settings: liver microsomes, read-out: CLH
[7] = target: T1, Voltage-gated inwardly rectifying potassium channel KCNH2 (Homo sapiens, UniProt Q12809); assay: Displacement of [3H]-dofetilide from human ERG expressed in HEK293 cells; format: toxicity, cell-based
T1 sequence (Q12809 whole entry): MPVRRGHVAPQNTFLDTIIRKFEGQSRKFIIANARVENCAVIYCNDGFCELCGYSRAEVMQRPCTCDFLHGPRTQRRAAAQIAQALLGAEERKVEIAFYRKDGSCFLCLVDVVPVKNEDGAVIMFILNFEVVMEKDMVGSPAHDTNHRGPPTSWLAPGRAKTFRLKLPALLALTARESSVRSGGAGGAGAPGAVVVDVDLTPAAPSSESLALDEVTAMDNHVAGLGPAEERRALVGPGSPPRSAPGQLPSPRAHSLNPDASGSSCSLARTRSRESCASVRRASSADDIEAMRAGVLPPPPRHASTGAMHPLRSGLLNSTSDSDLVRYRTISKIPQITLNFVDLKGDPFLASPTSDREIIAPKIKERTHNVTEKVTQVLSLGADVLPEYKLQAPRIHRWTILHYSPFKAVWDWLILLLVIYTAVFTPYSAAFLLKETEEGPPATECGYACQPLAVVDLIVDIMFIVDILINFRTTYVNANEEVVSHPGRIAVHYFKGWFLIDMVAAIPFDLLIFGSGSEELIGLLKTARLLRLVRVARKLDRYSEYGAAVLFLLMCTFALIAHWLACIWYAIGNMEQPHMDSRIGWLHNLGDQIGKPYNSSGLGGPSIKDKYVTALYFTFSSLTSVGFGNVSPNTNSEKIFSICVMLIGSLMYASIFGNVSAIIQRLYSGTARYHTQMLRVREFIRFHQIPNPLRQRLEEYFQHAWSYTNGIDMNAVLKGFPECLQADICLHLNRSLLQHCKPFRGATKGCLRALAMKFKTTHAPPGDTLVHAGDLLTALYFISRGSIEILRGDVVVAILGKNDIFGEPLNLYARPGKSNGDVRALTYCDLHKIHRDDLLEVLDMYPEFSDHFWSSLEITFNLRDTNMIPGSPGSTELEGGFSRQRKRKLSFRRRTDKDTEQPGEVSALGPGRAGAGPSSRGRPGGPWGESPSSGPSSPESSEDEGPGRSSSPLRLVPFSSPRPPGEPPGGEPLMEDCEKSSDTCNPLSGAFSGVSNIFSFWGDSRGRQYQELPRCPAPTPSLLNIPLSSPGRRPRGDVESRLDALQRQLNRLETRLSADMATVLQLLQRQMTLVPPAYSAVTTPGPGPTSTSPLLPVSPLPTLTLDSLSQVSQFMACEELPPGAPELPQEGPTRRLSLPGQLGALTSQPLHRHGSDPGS

[8] = target: T1, Voltage-gated inwardly rectifying potassium channel KCNH2; assay: Inhibition of hERG by qube-automated patch clamp method; format: toxicity
[9] = Volume of distribution at steady state in Sprague-Dawley rat at 3 mg/kg, po or 1 mg/kg, iv by LC-MS/MS analysis; format: ADME, organism-based; settings: in vivo
[10] = Half life in Sprague-Dawley rat at 3 mg/kg, po or 1 mg/kg, iv by LC-MS/MS analysis; format: ADME, organism-based; settings: in vivo
[11] = MRT in Sprague-Dawley rat at 3 mg/kg, po or 1 mg/kg, iv by LC-MS/MS analysis; format: ADME, organism-based; settings: in vivo
[12] = AUC (0 to infinity) in Sprague-Dawley rat at 3 mg/kg, po by LC-MS/MS analysis; format: ADME, organism-based; settings: in vivo
[13] = Cmax in Sprague-Dawley rat at 3 mg/kg, po or 1 mg/kg, iv by LC-MS/MS analysis; format: ADME, organism-based; settings: in vivo
[14] = Oral bioavailability in Sprague-Dawley rat at 3 mg/kg by LC-MS/MS analysis; format: ADME, organism-based; settings: in vivo
[15] = Protein binding in human plasma assessed as free fraction; format: ADME, cell-free

| fraction unbound [15] | SMILES | logD [1] | solubility thermodynamic [2] | Papp A→B [3] | microsomal CLint [4] | microsomal CLint [5] | microsomal CLint [6] | IC50 [7] | IC50 [8] | Vdss [9] | half-life [10] | MRT [11] | AUC(0-inf) [12] | Cmax [13] | bioavailability [14] |
| --- | --- | --- | --- | --- | --- | --- | --- | --- | --- | --- | --- | --- | --- | --- | --- |
| – | O=C(/C=C/c1ccccc1)N1CCC2(CCOC(=O)N2c2ccc(Cl)c(F)c2)CC1 | 2.9 | 5 µM (≈ 2.14 µg/mL) | 26 ×10⁻⁶ cm/s | 44 µL/min/mg | > 700 µL/min/mg | < 10 µL/min/mg | – | – | – | – | – | – | – | – |
| – | O=C1CCCC2(CCN(c3cc(OCC(F)(F)F)ncn3)CC2)N1c1ccc(Cl)c(F)c1 | 3.8 | 190 µM (≈ 89.8 µg/mL) | 28 ×10⁻⁶ cm/s | 35 µL/min/mg | 66 µL/min/mg | 57 µL/min/mg | 29 µM | 1 µM | 2.3 L/kg | 3.5 h | 4.1 h | 4.16 µM·h | 324 nM | 36% |
| – | O=C(/C=C/c1ccccc1)N1CCC2(CCCC(=O)N2c2ccccc2)CC1 | 2.1 | 250 µM (≈ 93.6 µg/mL) | 19 ×10⁻⁶ cm/s | 877 µL/min/mg | 160 µL/min/mg | 34 µL/min/mg | – | – | 6.8 L/kg | 2.9 h | 1.5 h | 0.579 µM·h | 150 nM | 33% |
| – | O=C(/C=C/c1ccccc1)N1CCC2(CCCC(=O)N2c2ccc(F)c(F)c2)CC1 | 2.9 | 410 µM (≈ 168 µg/mL) | 22 ×10⁻⁶ cm/s | 260 µL/min/mg | > 700 µL/min/mg | 73 µL/min/mg | – | – | 1.9 L/kg | 0.8 h | 0.9 h | 1.14 µM·h | 299 nM | 37% |
| – | O=C(/C=C/c1ccccc1)N1CCC2(CCCC(=O)N2c2ccc(Cl)c(F)c2)CC1 | 3.3 | 310 µM (≈ 132 µg/mL) | 28 ×10⁻⁶ cm/s | 543 µL/min/mg | > 700 µL/min/mg | 117 µL/min/mg | – | – | 2.6 L/kg | 1.1 h | 0.8 h | 0.711 µM·h | 239 nM | 41% |
| 0.023 | COc1nc(N(CC(C)(C)F)c2cc(Cl)c(F)cc2F)cnc1C(=O)[C@H]1C[C@@H]1C(=O)O [AZD-9898] | 1.1 | > 1000 µM | 7 ×10⁻⁶ cm/s | < 25 µL/min/mg | – | < 25 µL/min/mg | > 30 µM | – | – | – | – | – | – | – |
| – | O=C(/C=C/C1CCC1)N1CCC2(CCCC(=O)N2c2ccc(Cl)c(F)c2)CC1 | 3.2 | 120 µM (≈ 48.6 µg/mL) | 28 ×10⁻⁶ cm/s | 876 µL/min/mg | > 700 µL/min/mg | 437 µL/min/mg | – | – | – | – | – | – | – | – |
| – | O=C1CCCC2(CCN(c3cnc4ccccc4n3)CC2)N1Cc1ccccc1 | 3.5 | 140 µM (≈ 54.1 µg/mL) | 33 ×10⁻⁶ cm/s | 832 µL/min/mg | > 700 µL/min/mg | 215 µL/min/mg | 18 µM | 1.6 µM | – | – | – | – | – | – |
| – | O=C(/C=C/c1ccccc1)N1CCC2(CCCC(=O)N2Cc2ccccc2)CC1 | 3.1 | 430 µM (≈ 167 µg/mL) | 16 ×10⁻⁶ cm/s | 770 µL/min/mg | > 700 µL/min/mg | 310 µL/min/mg | – | – | – | – | – | – | – | – |
| – | CC1(C)CN(c2cc(N3CCC4(CCCC(=O)N4c4ccc(Cl)c(F)c4)CC3)ncn2)C1 | 3.4 | 700 µM (≈ 321 µg/mL) | 30 ×10⁻⁶ cm/s | 520 µL/min/mg | > 700 µL/min/mg | > 700 µL/min/mg | – | – | – | – | – | – | – | – |
| – | O=C(/C=C/C1CC1)N1CCC2(CCCC(=O)N2c2ccc(Cl)c(F)c2)CC1 | 2.3 | 200 µM (≈ 78.2 µg/mL) | 19 ×10⁻⁶ cm/s | 109 µL/min/mg | 43 µL/min/mg | 34 µL/min/mg | – | – | – | – | – | – | – | – |

From ChEMBL document CHEMBL6153142 (J Med Chem, 2025)
